The record followed here is BindingDB's records for doi:10.1021/jm800940u (Schering-Plough Research Institute, 2009).

Genome polyprotein, sequence (P27958 1027-1657 limits assumed): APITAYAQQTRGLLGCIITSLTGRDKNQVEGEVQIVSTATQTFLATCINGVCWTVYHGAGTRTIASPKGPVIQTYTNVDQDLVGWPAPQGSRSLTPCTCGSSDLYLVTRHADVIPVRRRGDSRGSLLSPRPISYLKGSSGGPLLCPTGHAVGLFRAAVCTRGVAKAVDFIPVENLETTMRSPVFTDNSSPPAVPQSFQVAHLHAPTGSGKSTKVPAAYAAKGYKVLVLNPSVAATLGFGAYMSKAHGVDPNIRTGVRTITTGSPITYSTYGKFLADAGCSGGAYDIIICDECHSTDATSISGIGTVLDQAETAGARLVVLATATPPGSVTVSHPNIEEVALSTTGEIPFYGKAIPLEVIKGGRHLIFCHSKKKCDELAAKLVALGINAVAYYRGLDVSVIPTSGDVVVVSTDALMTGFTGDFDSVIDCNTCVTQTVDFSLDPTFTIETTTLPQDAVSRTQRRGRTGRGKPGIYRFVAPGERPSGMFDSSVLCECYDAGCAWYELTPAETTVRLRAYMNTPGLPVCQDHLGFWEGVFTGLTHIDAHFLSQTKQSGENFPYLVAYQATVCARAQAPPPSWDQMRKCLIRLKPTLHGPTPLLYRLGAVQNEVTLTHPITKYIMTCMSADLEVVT

One experiment concerns the target Genome polyprotein (Hepatitis C virus genotype 1a (isolate H77), UniProt P27958). Briefly: Continuous Spectrophotometric Assay.
Conditions: not given
The method, then:
Proteolytic cleavage of the ester linkage between the Nva (L-norvaline) and the chromophore (PAP) was monitored for change in absorbance at 370 nm. Initial velocities were determined using linear regression and kinetic constants were obtained by fitting the data to the Michaelis-Menten equation.
In turn, `C=CCNC(=O)C(=O)[C@@H]1CCCCCCCCC[C@H](NC(=O)N[C@H](C(=O)C2CC2)C2CCCCC2)C(=O)N2C[C@H]3[C@@H]([C@H]2C(=O)N1)C3(C)C` [2-[(3S,13S,16S,17R,19S)-3-({[(1S)-1-cyclohexyl-2-cyclopropyl-2-oxoethyl]carbamoyl}amino)-18,18-dimethyl-2,15-dioxo-1,14-diazatricyclo[14.4.0.0^{17,19}]icosan-13-yl]-2-oxo-N-(prop-2-en-1-yl)acetamide] had a Ki of 6 nM.
Same read-out and setting: the same measure for `C=CCNC(=O)C(=O)[C@@H]1CCCCCCCCC[C@H](NC(=O)N[C@H](CN2Cc3sccc3S2(=O)=O)C(C)(C)C)C(=O)N2C[C@H]3[C@@H]([C@H]2C(=O)N1)C3(C)C` [2-[(3S,13S,16S,17R,19S)-3-({[(2S)-1-(1,1-dioxo-2H,3H-1,4,2-thieno[2,3-d][1,2]thiazol-2-yl)-3,3-dimethylbutan-2-yl]carbamoyl}amino)-18,18-dimethyl-2,15-dioxo-1,14-diazatricyclo[14.4.0.0^{17,19}]icosan-13-yl]-2-oxo-N-(prop-2-en-1-yl)acetamide]: 7 nM; for `C=CCNC(=O)C(=O)[C@@H]1CCCCCCCCC[C@H](NC(=O)N[C@H](CN2C(=O)c3ccccc3C2=O)C(C)(C)C)C(=O)N2C[C@H]3[C@@H]([C@H]2C(=O)N1)C3(C)C` [2-[(3S,13S,16S,17R,19S)-3-({[(2S)-1-(1,3-dioxo-2,3-dihydro-1H-isoindol-2-yl)-3,3-dimethylbutan-2-yl]carbamoyl}amino)-18,18-dimethyl-2,15-dioxo-1,14-diazatricyclo[14.4.0.0^{17,19}]icosan-13-yl]-2-oxo-N-(prop-2-en-1-yl)acetamide]: 16 nM; for `C=CCNC(=O)C(=O)[C@@H]1CCCCCCCCC[C@H](NC(=O)N[C@H](CN2C(=O)CC(C)(C)CC2=O)C(C)(C)C)C(=O)N2C[C@H]3[C@@H]([C@H]2C(=O)N1)C3(C)C` [2-[(3S,13S,16S,17R,19S)-3-({[(2S)-1-(4,4-dimethyl-2,6-dioxopiperidin-1-yl)-3,3-dimethylbutan-2-yl]carbamoyl}amino)-18,18-dimethyl-2,15-dioxo-1,14-diazatricyclo[14.4.0.0^{17,19}]icosan-13-yl]-2-oxo-N-(prop-2-en-1-yl)acetamide]: 2 nM.
Still for that read-out and setting: as for `C=CCNC(=O)C(=O)[C@@H]1CCCCCCCCC[C@H](NC(=O)N[C@H](CN2CCC(C)(C)CC2=O)C(C)(C)C)C(=O)N2C[C@H]3[C@@H]([C@H]2C(=O)N1)C3(C)C` [2-[(3S,13S,16S,17R,19S)-3-({[(2S)-1-(4,4-dimethyl-2-oxopiperidin-1-yl)-3,3-dimethylbutan-2-yl]carbamoyl}amino)-18,18-dimethyl-2,15-dioxo-1,14-diazatricyclo[14.4.0.0^{17,19}]icosan-13-yl]-2-oxo-N-(prop-2-en-1-yl)acetamide], the figure is 2 nM; as for `C=CCNC(=O)C(=O)[C@@H]1CCCCCCCCC[C@H](NC(=O)N[C@H](CN(C)S(=O)(=O)N(C)C)C(C)(C)C)C(=O)N2C[C@H]3[C@@H]([C@H]2C(=O)N1)C3(C)C` [2-[(3S,13S,16S,17R,19S)-3-({[(2S)-1-[(dimethylsulfamoyl)(methyl)amino]-3,3-dimethylbutan-2-yl]carbamoyl}amino)-18,18-dimethyl-2,15-dioxo-1,14-diazatricyclo[14.4.0.0^{17,19}]icosan-13-yl]-2-oxo-N-(prop-2-en-1-yl)acetamide], 13 nM; as for `C=CCNC(=O)C(=O)[C@@H]1CCCCCCCCC[C@H](NC(=O)N[C@H](CN(C)S(C)(=O)=O)C(C)(C)C)C(=O)N2C[C@H]3[C@@H]([C@H]2C(=O)N1)C3(C)C` [2-[(3S,13S,16S,17R,19S)-3-({[(2S)-1-[methane(methyl)sulfonamido]-3,3-dimethylbutan-2-yl]carbamoyl}amino)-18,18-dimethyl-2,15-dioxo-1,14-diazatricyclo[14.4.0.0^{17,19}]icosan-13-yl]-2-oxo-N-(prop-2-en-1-yl)acetamide], 3 nM.
On the same count and under the same terms, the same measure for `C=CCNC(=O)C(=O)[C@@H]1CCCCCCCCC[C@H](NC(=O)N[C@H](CN2C(=O)C3CCC(C3)C2=O)C(C)(C)C)C(=O)N2C[C@H]3[C@@H]([C@H]2C(=O)N1)C3(C)C` [2-[(3S,13S,16S,17R,19S)-3-({[(2S)-1-{2,4-dioxo-3-azabicyclo[3.2.1]octan-3-yl}-3,3-dimethylbutan-2-yl]carbamoyl}amino)-18,18-dimethyl-2,15-dioxo-1,14-diazatricyclo[14.4.0.0^{17,19}]icosan-13-yl]-2-oxo-N-(prop-2-en-1-yl)acetamide]: 3 nM; for `C=CCNC(=O)C(=O)[C@@H]1CCCCCCCCC[C@H](NC(=O)N[C@H](CN2C(=O)CN(C)CC2=O)C(C)(C)C)C(=O)N2C[C@H]3[C@@H]([C@H]2C(=O)N1)C3(C)C` [2-[(3S,13S,16S,17R,19S)-3-({[(2S)-3,3-dimethyl-1-(4-methyl-2,6-dioxopiperazin-1-yl)butan-2-yl]carbamoyl}amino)-18,18-dimethyl-2,15-dioxo-1,14-diazatricyclo[14.4.0.0^{17,19}]icosan-13-yl]-2-oxo-N-(prop-2-en-1-yl)acetamide]: 4 nM; for `C=CCNC(=O)C(=O)[C@@H]1CCCCCCCCC[C@H](NC(=O)N[C@H](CN(C)S(=O)(=O)c2ccccn2)C(C)(C)C)C(=O)N2C[C@H]3[C@@H]([C@H]2C(=O)N1)C3(C)C` [2-[(3S,13S,16S,17R,19S)-3-({[(2S)-3,3-dimethyl-1-[methyl(pyridine-2-)sulfonamido]butan-2-yl]carbamoyl}amino)-18,18-dimethyl-2,15-dioxo-1,14-diazatricyclo[14.4.0.0^{17,19}]icosan-13-yl]-2-oxo-N-(prop-2-en-1-yl)acetamide]: 7 nM.

Still in this experiment, the particulars now being: pH 6.5; 30 °C.
In turn, `CN(C[C@@H](NC(=O)N[C@H]1CCCCCCCCC[C@@H](C(=O)C(N)=O)NC(=O)[C@@H]2[C@@H]3[C@H](CN2C1=O)C3(C)C)C(C)(C)C)S(C)(=O)=O` [2-[(3S,13S,16S,17R,19S)-3-({[(2S)-1-[methane(methyl)sulfonamido]-3,3-dimethylbutan-2-yl]carbamoyl}amino)-18,18-dimethyl-2,15-dioxo-1,14-diazatricyclo[14.4.0.0^{17,19}]icosan-13-yl]-2-oxoacetamide] came in with a Ki of 3 nM.
Turning to `CC(C)[C@H](NC(=O)N[C@H]1CCCCCCCCC[C@@H](C(=O)C(N)=O)NC(=O)[C@@H]2[C@@H]3[C@H](CN2C1=O)C3(C)C)C(=O)C1CC1` [2-[(3S,13S,16S,17R,19S)-3-({[(2S)-1-cyclopropyl-3-methyl-1-oxobutan-2-yl]carbamoyl}amino)-18,18-dimethyl-2,15-dioxo-1,14-diazatricyclo[14.4.0.0^{17,19}]icosan-13-yl]-2-oxoacetamide], the inhibition constant (Ki) is 11 nM. Compared with the last compound, the Ki is about 3.7-fold higher.
On the same count and under the same terms, the same measure for `C=CCNC(=O)C(=O)[C@@H]1CCCCCCCCC[C@H](NC(=O)N[C@H](CN(C)S(=O)(=O)c2cccs2)C(C)(C)C)C(=O)N2C[C@H]3[C@@H]([C@H]2C(=O)N1)C3(C)C` [2-[(3S,13S,16S,17R,19S)-3-({[(2S)-3,3-dimethyl-1-[methyl(thiophene-2-)sulfonamido]butan-2-yl]carbamoyl}amino)-18,18-dimethyl-2,15-dioxo-1,14-diazatricyclo[14.4.0.0^{17,19}]icosan-13-yl]-2-oxo-N-(prop-2-en-1-yl)acetamide]: 5 nM.
Same read-out and setting: as for `CCCNC(=O)C(=O)[C@@H]1CCCCCCCCC[C@H](NC(=O)N[C@H](CN(C)S(=O)(=O)c2cccs2)C(C)(C)C)C(=O)N2C[C@H]3[C@@H]([C@H]2C(=O)N1)C3(C)C` [2-[(3S,13S,16S,17R,19S)-3-({[(2S)-3,3-dimethyl-1-[methyl(thiophene-2-)sulfonamido]butan-2-yl]carbamoyl}amino)-18,18-dimethyl-2,15-dioxo-1,14-diazatricyclo[14.4.0.0^{17,19}]icosan-13-yl]-2-oxo-N-propylacetamide], the figure is 14 nM; as for `CN(C[C@@H](NC(=O)N[C@H]1CCCCCCCCC[C@@H](C(=O)C(N)=O)NC(=O)[C@@H]2[C@@H]3[C@H](CN2C1=O)C3(C)C)C(C)(C)C)S(=O)(=O)c1cccs1` [2-[(3S,13S,16S,17R,19S)-3-({[(2S)-3,3-dimethyl-1-[methyl(thiophene-2-)sulfonamido]butan-2-yl]carbamoyl}amino)-18,18-dimethyl-2,15-dioxo-1,14-diazatricyclo[14.4.0.0^{17,19}]icosan-13-yl]-2-oxoacetamide], 2 nM; as for `CCNC(=O)C(=O)[C@@H]1CCCCCCCCC[C@H](NC(=O)N[C@H](CN(C)S(=O)(=O)c2cccs2)C(C)(C)C)C(=O)N2C[C@H]3[C@@H]([C@H]2C(=O)N1)C3(C)C` [2-[(3S,13S,16S,17R,19S)-3-({[(2S)-3,3-dimethyl-1-[methyl(thiophene-2-)sulfonamido]butan-2-yl]carbamoyl}amino)-18,18-dimethyl-2,15-dioxo-1,14-diazatricyclo[14.4.0.0^{17,19}]icosan-13-yl]-N-ethyl-2-oxoacetamide], 10 nM.
As for `CC(C)(C)NC(=O)N[C@H]1CCCCCCCCCC[C@@H](C(=O)C(N)=O)NC(=O)[C@@H]2[C@@H]3[C@H](CN2C1=O)C3(C)C` [2-[(3S,14S,17S,18R,20S)-3-[(tert-butylcarbamoyl)amino]-19,19-dimethyl-2,16-dioxo-1,15-diazatricyclo[15.4.0.0^{18,20}]henicosan-14-yl]-2-oxoacetamide], the inhibition constant (Ki) was 59 nM.
Same read-out and setting: as for `CN(C)C(=O)[C@@H](NC(=O)CNC(=O)C(=O)[C@@H]1CCCCCCCCCC[C@H](NC(=O)NC(C)(C)C)C(=O)N2C[C@H]3[C@@H]([C@H]2C(=O)N1)C3(C)C)c1ccccc1` [2-[(3S,14S,17S,18R,20S)-3-[(tert-butylcarbamoyl)amino]-19,19-dimethyl-2,16-dioxo-1,15-diazatricyclo[15.4.0.0^{18,20}]henicosan-14-yl]-N-({[(S)-(dimethylcarbamoyl)(phenyl)methyl]carbamoyl}methyl)-2-oxoacetamide], the figure is 6 nM.
Compound `CC1(NC(=O)N[C@H]2CCCCCCCCCC[C@@H](C(=O)C(N)=O)NC(=O)[C@@H]3[C@@H]4[C@H](CN3C2=O)C4(C)C)CCCCC1` [2-[(3S,14S,17S,18R,20S)-19,19-dimethyl-3-{[(1-methylcyclohexyl)carbamoyl]amino}-2,16-dioxo-1,15-diazatricyclo[15.4.0.0^{18,20}]henicosan-14-yl]-2-oxoacetamide] showed an inhibitory constant (Ki) of 36 nM.

As a reminder, the Ki is a dissociation constant, usually derived from enzyme kinetics or from competition with a known ligand. Low readings indicate higher affinity, high ones lower affinity.
